{
  "source": "patent US12121540B2",
  "about": "“CBL inhibitors and compositions for use in adoptive cell therapy” (Nurix Therapeutics, Inc., priority 2019, dated 2024)",
  "tested_on": "E.G7-OVA tumors",
  "assay": "Oral Cbl inhibitor treatment with expanded OT-1 cells in tumor-bearing mice",
  "assay_type": "in vivo, mouse",
  "procedure": "Tumor volume was measured roughly every five days after cell transfer.\nOT-1 cells were assessed in mouse blood 5 days and 20 days after transfer.",
  "data": [
    {"smiles": "C[C@H]1CCCN(Cc2cc3c(c(C(F)(F)F)c2)CN(c2cccc([C@]4(c5nncn5C)C[C@@H](C)C4)c2)C3=O)C1", "note": "[compound 116]", "values": [
      {"measurement": "Anti-tumor efficacy (tumor volume) of OT-1 cells", "setting": "oral administration, OT-1 cells expanded with compound 103 plus IL-2, FIG. 18", "value": "enhanced the anti-tumor efficacy"},
      {"measurement": "Survival of mice", "setting": "oral administration, OT-1 cells expanded with compound 103 plus IL-2, FIG. 19", "value": "enhanced survival"},
      {"measurement": "Persistence of OT-1 cells in mouse blood", "setting": "oral, OT-1 cells expanded with Cbl inhibitor plus IL-2", "value": "longer persistence"},
      {"measurement": "Frequency of OT-1 cells in mouse blood", "setting": "oral, OT-1 cells expanded with Cbl inhibitor plus IL-2, 5 and 20 days after transfer", "value": "increased frequency"}
    ]}
  ]
}
